Assay results: ChEMBL document CHEMBL1134497, “Soluble 2-substituted aminopyrido[2,3-d]pyrimidin-7-yl ureas. Structure-activity relationships against selected tyrosine kinases and exploration of in vitro and in vivo anticancer activity” (J Med Chem, 2001)

What was measured:
C6 = experiment: Inhibition of C-6 rat glioma cell proliferation; format: functional, cell-based
[1] = molecular target: T1, Platelet-derived growth factor receptor (PDGFr) (Rattus norvegicus, UniProt P20786+Q05030); experiment: (§1) Inhibition of PDGF receptor autophosphorylation in rat aortic vascular smooth muscle cells; format: functional
HCT-8 = experiment: Inhibition of human colon carcinoma HCT-8 cell proliferation; format: functional, cell-based
[2] = molecular target: Proto-oncogene tyrosine-protein kinase Src (Gallus gallus, UniProt P00523); experiment: Ability to prevent phosphorylation of avian c-Src TK
HT-29 = experiment: Inhibition of human colon carcinoma HT-29 cell proliferation; format: functional, cell-based
SW-620 = experiment: Inhibition of human colon carcinoma SW-620 cell proliferation; format: functional, cell-based
[3] = Inhibition of MEK1/ERK (MAP Kinase kinase) in cascade assay
[4] = molecular target: T1, Platelet-derived growth factor receptor (PDGFr); experiment: as §1
Protein kinase C (PKC) = experiment: Inhibition of protein kinase C; format: protein assay
[5] = molecular target: Cyclin-dependent kinase 4 (Homo sapiens, UniProt P11802); experiment: Inhibition of cyclin dependent kinase 4 (CDK4)
Insulin receptor = Insulin receptor (Homo sapiens, UniProt P06213); experiment: Inhibition of insulin receptor kinase
Insulin receptor, sequence (P06213 28-758 limits assumed): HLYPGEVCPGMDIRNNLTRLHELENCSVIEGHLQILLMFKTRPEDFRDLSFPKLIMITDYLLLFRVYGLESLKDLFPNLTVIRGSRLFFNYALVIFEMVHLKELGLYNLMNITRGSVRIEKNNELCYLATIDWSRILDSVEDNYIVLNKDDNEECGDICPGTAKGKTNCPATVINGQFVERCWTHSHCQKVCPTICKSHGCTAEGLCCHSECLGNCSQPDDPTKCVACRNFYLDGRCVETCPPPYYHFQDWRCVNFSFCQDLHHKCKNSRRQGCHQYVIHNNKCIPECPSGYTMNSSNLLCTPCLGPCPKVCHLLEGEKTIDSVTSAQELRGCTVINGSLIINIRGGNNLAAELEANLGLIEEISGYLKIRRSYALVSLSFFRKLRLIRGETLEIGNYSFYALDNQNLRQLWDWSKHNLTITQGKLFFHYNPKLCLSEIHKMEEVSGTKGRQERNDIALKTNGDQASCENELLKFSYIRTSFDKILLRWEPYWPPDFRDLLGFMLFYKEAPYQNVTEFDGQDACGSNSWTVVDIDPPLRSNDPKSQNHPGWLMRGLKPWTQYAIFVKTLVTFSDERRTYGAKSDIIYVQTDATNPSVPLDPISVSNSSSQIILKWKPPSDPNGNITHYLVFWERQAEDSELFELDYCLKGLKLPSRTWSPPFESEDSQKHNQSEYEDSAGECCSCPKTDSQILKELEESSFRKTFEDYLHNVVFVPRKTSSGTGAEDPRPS
Insulin receptor, sequence (P06213 763-1382 limits assumed): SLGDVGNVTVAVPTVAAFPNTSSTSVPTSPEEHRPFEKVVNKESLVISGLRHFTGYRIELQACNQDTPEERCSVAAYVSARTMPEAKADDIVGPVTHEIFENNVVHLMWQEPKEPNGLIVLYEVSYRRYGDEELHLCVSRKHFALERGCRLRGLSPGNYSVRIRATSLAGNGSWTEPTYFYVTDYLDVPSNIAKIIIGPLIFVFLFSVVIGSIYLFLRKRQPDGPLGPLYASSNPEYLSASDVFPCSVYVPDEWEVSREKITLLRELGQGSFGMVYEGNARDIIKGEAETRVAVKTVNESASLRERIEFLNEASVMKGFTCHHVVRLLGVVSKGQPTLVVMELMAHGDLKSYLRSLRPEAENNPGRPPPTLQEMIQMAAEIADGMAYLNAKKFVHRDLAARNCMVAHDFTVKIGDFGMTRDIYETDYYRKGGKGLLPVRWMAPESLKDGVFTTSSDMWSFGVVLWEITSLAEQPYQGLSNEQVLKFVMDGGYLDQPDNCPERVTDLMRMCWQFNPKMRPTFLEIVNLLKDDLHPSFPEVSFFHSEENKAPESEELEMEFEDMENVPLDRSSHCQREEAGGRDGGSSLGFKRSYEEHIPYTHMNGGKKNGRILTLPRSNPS

Cyclin-dependent kinase 4, sequence (P11802 whole entry): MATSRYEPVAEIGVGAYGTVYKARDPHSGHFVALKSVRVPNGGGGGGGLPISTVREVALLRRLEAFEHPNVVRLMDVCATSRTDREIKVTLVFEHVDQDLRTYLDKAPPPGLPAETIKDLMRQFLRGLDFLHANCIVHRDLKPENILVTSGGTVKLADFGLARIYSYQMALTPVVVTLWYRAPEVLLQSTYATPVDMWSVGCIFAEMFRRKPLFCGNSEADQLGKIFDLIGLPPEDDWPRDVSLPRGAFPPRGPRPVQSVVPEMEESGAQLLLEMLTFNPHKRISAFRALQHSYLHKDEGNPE

IC50 [1]	IC50 (HCT-8)	IC50 [2]	IC50 (HT-29)	IC50 (SW-620)	IC50 [3]	IC50 [4]	IC50 (Protein kinase C (PKC))	IC50 [5]	IC50 (Insulin receptor)	Structure (SMILES)	IC50 (C6)
0.37 µM	4 µM	15 nM	1500 nM	4.1 µM						CN1CCN(CCCNc2ncc3cc(-c4c(Cl)cccc4Cl)c(NC(=O)Nc4ccccc4)nc3n2)CC1	6.7 µM
	3.2 µM	7.5 nM	800 nM	2.6 µM	5 µM	1.2 µM	> 50 µM	> 40 µM	> 50 µM	CCN(CC)CCCCNc1ncc2cc(-c3c(Cl)cccc3Cl)c(NC(=O)Nc3ccccc3)nc2n1	8.1 µM
